Converted amounts (≈) assume the structure as drawn. Where two headings read alike, the source gives them in different places.
System: A. baumannii strain ATCC19606
Experiment: Minimum inhibitory concentration (MIC) determination, microbroth dilution (CLSI)
Type: cell-based
Conditions: Acinetobacter baumannii, read-out: ATCC19606 MIC
Procedure, shortened: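 CLSI broth microdilution in cation-adjusted Mueller Hinton broth with twofold compound dilutions and ~5×10^5 CFU/ml inoculum, incubated at 35±2 °C. MIC read after 20 h as lowest concentration inhibiting ≥80% of growth, by eye and OD 600 nm.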

[1] = A. baumannii ATCC19606, CAMHB, read after 20 hours, >=80% growth inhibition

Row | MIC [1] [µg/mL] | SMILES | MIC (ATCC19606, 20 h) [µg/mL]
1 | 4 (≈ 5.41 µM) | CN1C(=O)[C@H](CCCN)NC(=O)[C@H](CCC(N)=O)NCc2cccnc2Sc2c(Cl)cc(Cl)cc2CNC(=O)[C@@H]1Cc1c[nH]c2ccccc12 [Example 160, 3-[(11S,14S,17S)-14-(3-Amino-propyl)-23,25-dichloro-17-(1H-indol-3-ylmethyl)-16-methyl-12,15,18-trioxo-2-thia-4,10,13,16,19-pentaaza-tricyclo[19.4.0.0*3,8*]pentacosa-1(25),3(8),4,6,21,23-hexaen-11-yl]-propionamide] | 
2 | 4 (≈ 5.61 µM) | CN1C(=O)[C@H](CCCCN)NC(=O)[C@H](CO)NCc2cccnc2Sc2c(Cl)cc(Cl)cc2CNC(=O)[C@@H]1Cc1c[nH]c2ccccc12 [Example 96, (11S,14S,17S)-14-(4-Amino-butyl)-23,25-dichloro-11-hydroxymethyl-17-(1H-indol-3-ylmethyl)-16-methyl-2-thia-4,10,13,16,19-pentaaza-tricyclo[19.4.0.0*3,8*]pentacosa-1(25),3,5,7,21,23-hexaene-12,15,18-trione] | 
3 | 1 (≈ 1.38 µM) | CN1C(=O)[C@H](CCCCN)NC(=O)[C@H](CCCN)NCc2ccccc2Sc2c(Cl)ccc(F)c2CNC(=O)[C@@H]1Cc1c[nH]c2ccccc12 [Example 26, (12S,15S,18S)-15-(4-Amino-butyl)-18-(3-amino-propyl)-4-chloro-7-fluoro-12-(1H-indol-3-ylmethyl)-13-methyl-2-thia-10,13,16,19-tetraaza-tricyclo[19.4.0.0*3,8*]pentacosa-1(25),3,5,7,21,23-hexaene-11,14,17-trione] | 
4 |  | CN1C(=O)[C@H](CCCCN)NC(=O)[C@H](CCCN)NCc2cccnc2Sc2c(Cl)ccc(Cl)c2CNC(=O)[C@@H]1Cc1c[nH]c2ccccc12 [Example 38, (11S,14S,17S)-14-(4-Amino-butyl)-11-(3-amino-propyl)-22,25-dichloro-17-(1H-indol-3-ylmethyl)-16-methyl-2-thia-4,10,13,16,19-pentaaza-tricyclo[19.4.0.0*3,8*]pentacosa-1(25),3(8),4,6,21,23-hexaene-12,15,18-trione] | 0.5 (≈ 0.676 µM)
5 | 16 (≈ 21.3 µM) | CN1C(=O)[C@H](CCCCN)NC(=O)[C@H](CCCN)NCc2ccccc2Sc2ccc(Cl)cc2CNC(=O)[C@@H]1Cc1cn(C)c2cc(Cl)ccc12 [Example 19, (12S,15S,18S)-15-(4-Amino-butyl)-18-(3-amino-propyl)-6-chloro-12-(6-chloro-1-methyl-1H-indol-3-ylmethyl)-13-methyl-2-thia-10,13,16,19-tetraaza-tricyclo[19.4.0.0*3,8*]pentacosa-1(21),3,5,7,22,24-hexaene-11,14,17-trione] | 
6 | 0.5 (≈ 0.707 µM) | CN1C(=O)[C@H](CCCCN)NC(=O)[C@H](CCCN)NCc2cccnc2Sc2c(F)ccc(F)c2CNC(=O)[C@@H]1Cc1c[nH]c2ccccc12 [Example 40, (11S,14S,17S)-14-(4-Amino-butyl)-1-(3-amino-propyl)-22,25-difluoro-17-(1H-indol-3-ylmethyl)-16-methyl-2-thia-4,10,13,16,19-pentaaza-tricyclo[19.4.0.0*3,8*]pentacosa-1(25),3(8),4,6,21,23-hexaene-12,15,18-trione] | 
7 | 4 (≈ 5.97 µM) | CN1C(=O)[C@H](CCCCN)NC(=O)[C@H](CCCN)NCc2ccccc2Sc2ccccc2CNC(=O)[C@@H]1Cc1c[nH]c2ccccc12 [Example 1, (12S,15S,18S)-15-(4-Amino-butyl)-18-(3-amino-propyl)-12-(1H-indol-3-ylmethyl)-13-methyl-2-thia-10,13,16,19-tetraaza-tricyclo[19.4.0.0*3,8*]pentacosa-1(21),3,5,7,22,24-hexaene-11,14,17-trione] | 
8 | 0.25 (≈ 0.336 µM) | Cc1[nH]c2ccccc2c1C[C@H]1C(=O)NCc2cc(C#N)cc(Cl)c2Sc2ncccc2CN[C@@H](CCCN)C(=O)N[C@@H](CCCCN)C(=O)N1C [Example 233, (11S,14S,17S)-14-(4-Amino-butyl)-11-(3-amino-propyl)-25-chloro-16-methyl-17-(2-methyl-1H-indol-3-ylmethyl)-12,15,18-trioxo-2-thia-4,10,13,16,19-pentaaza-tricyclo[19.4.0.0*3,8*]pentacosa-1(25),3(8),4,6,21,23-hexaene-23-carbonitrile] | 
9 | 0.5 (≈ 0.633 µM) | CN1C(=O)[C@H](CCCCN)NC(=O)[C@H](COCCN)NCc2cccnc2Sc2c(Cl)ccc(C(F)(F)F)c2CNC(=O)[C@@H]1Cc1c[nH]c2ccccc12 [Example 118, (11S,14S,17S)-14-(4-Amino-butyl)-11-(2-amino-ethoxymethyl)-25-chloro-17-(1H-indol-3-ylmethyl)-16-methyl-22-trifluoromethyl-2-thia-4,10,13,16,19-pentaaza-tricyclo[19.4.0.0*3,8*]pentacosa-1(25),3,5,7,21,23-hexaene-12,15,18-trione] | 
10 | 1 (≈ 1.23 µM) | CN1C(=O)[C@H](CCCCN)NC(=O)[C@H](CCC(N)=O)NCc2cccnc2Sc2c(Cl)ccc(-c3ccnc(F)c3)c2CNC(=O)[C@@H]1Cc1c[nH]c2ccccc12 [Example 231, 3-[(11S,14S,17S)-14-(4-Amino-butyl)-25-chloro-22-(2-fluoro-pyridin-4-yl)-17-(1H-indol-3-ylmethyl)-16-methyl-12,15,18-trioxo-2-thia-4,10,13,16,19-pentaaza-tricyclo[19.4.0.0*3,8*]pentacosa-1(21),3,5,7,22,24-hexaen-11-yl]-propionamide] | 
11 | 16 (≈ 23.4 µM) | Cc1ccc2c(c1)Sc1ccccc1CN[C@@H](CCCN)C(=O)N[C@@H](CCCCN)C(=O)N(C)[C@@H](Cc1c[nH]c3ccccc13)C(=O)NC2 [Example 9, (12S,15S,18S)-15-(4-Amino-butyl)-18-(3-amino-propyl)-12-(1H-indol-3-ylmethyl)-5,13-dimethyl-2-thia-10,13,16,19-tetraaza-tricyclo[19.4.0.0*3,8*]pentacosa-1(21),3,5,7,22,24-hexaene-11,14,17-trione] | 
12 | 2 (≈ 2.7 µM) | CN1C(=O)[C@H](CCCCN)NC(=O)[C@H](CCCN)NCc2cccnc2Sc2ccc(Cl)c(Cl)c2CNC(=O)[C@@H]1Cc1c[nH]c2ccccc12 [Example 37, (11S,14S,17S)-14-(4-Amino-butyl)-11-(3-amino-propyl)-22,23-dichloro-17-(1H-indol-3-ylmethyl)-16-methyl-2-thia-4,10,13,16,19-pentaaza-tricyclo[19.4.0.0*3,8*]pentacosa-1(25),3,5,7,21,23-hexaene-12,15,18-trione] | 
13 | 16 (≈ 20.8 µM) | CNC(=O)CC[C@@H]1NCc2cccnc2Sc2c(Cl)cc(Cl)cc2CNC(=O)[C@H](Cc2c[nH]c3ccccc23)N(C)C(=O)[C@H](CCCCN)NC1=O [Example 210, 3-[(11S,14S,17S)-14-(4-Amino-butyl)-23,25-dichloro-17-(1H-indol-3-ylmethyl)-16-methyl-12,15,18-trioxo-2-thia-4,10,13,16,19-pentaaza-tricyclo[19.4.0.0*3,8*]pentacosa-1(25),3(8),4,6,21,23-hexaen-11-yl]-N-methyl-propionamide] | 
14 | 0.12 (≈ 0.153 µM) | CN1C(=O)[C@H](CCCCN)NC(=O)[C@H](CCCN)NCc2cccnc2Sc2c(Cl)cc(Br)cc2CNC(=O)[C@@H]1Cc1c[nH]c2ccccc12 [Example 89, (11S,14S,17S)-14-(4-Amino-butyl)-11-(3-amino-propyl)-23-bromo-25-chloro-17-(1H-indol-3-ylmethyl)-16-methyl-2-thia-4,10,13,16,19-pentaaza-tricyclo[19.4.0.0*3,8*]pentacosa-1(25),3,5,7,21,23-hexaene-12,15,18-trione] | 
15 | 2 (≈ 2.32 µM) | CN1C(=O)[C@H](CCCCN)NC(=O)[C@H](CCCN)NCc2cccnc2Sc2c(Cl)cc(-c3cncc(S(C)(=O)=O)c3)cc2CNC(=O)[C@@H]1Cc1c[nH]c2ccccc12 [Example 173, (11S,14S,17S)-14-(4-Amino-butyl)-11-(3-amino-propyl)-25-chloro-17-(1H-indol-3-ylmethyl)-23-(5-methanesulfonyl-pyridin-3-yl)-16-methyl-2-thia-4,10,13,16,19-pentaaza-tricyclo[19.4.0.0*3,8*]pentacosa-1(25),3(8),4,6,21,23-hexaene-12,15,18-trione] | 
16 | 1 (≈ 1.27 µM) | CN1C(=O)[C@H](CCCCN)NC(=O)[C@H](CCCN)NCc2ccccc2Sc2c(Cl)cc(-c3ccn(C)n3)cc2CNC(=O)[C@@H]1Cc1c[nH]c2ccccc12 [Example 144, (12S,15S,18S)-15-(4-Amino-butyl)-18-(3-amino-propyl)-4-chloro-12-(1H-indol-3-ylmethyl)-13-methyl-6-(1-methyl-1H-pyrazol-3-yl)-2-thia-10,13,16,19-tetraaza-tricyclo[19.4.0.0*3,8*]pentacosa-1(25),3,5,7,21,23-hexaene-11,14,17-trione] | 
17 | 0.5 (≈ 0.647 µM) | CN1C(=O)[C@H](CCCCN)NC(=O)[C@H](CCCN)NCc2ncccc2Sc2c(Cl)cc(C(F)(F)F)cc2CNC(=O)[C@@H]1Cc1c[nH]c2ccccc12 [Example 112, (11S,14S,17S)-14-(4-Amino-butyl)-11-(3-amino-propyl)-25-chloro-17-(1H-indol-3-ylmethyl)-16-methyl-23-trifluoromethyl-2-thia-7,10,13,16,19-pentaaza-tricyclo[19.4.0.0*3,8*]pentacosa-1(25),3,5,7,21,23-hexaene-12,15,18-trione] | 
18 | 2 (≈ 2.75 µM) | CN1C(=O)[C@H](CCCCN)NC(=O)[C@H](CCCN)NCc2ccccc2Sc2ccc(C(C)(C)C)cc2CNC(=O)[C@@H]1Cc1c[nH]c2ccccc12 [Example 70, (12S,15S,18S)-15-(4-Amino-butyl)-18-(3-amino-propyl)-6-tert-butyl-12-(1H-indol-3-ylmethyl)-13-methyl-2-thia-10,13,16,19-tetraaza-tricyclo[19.4.0.0*3,8*]pentacosa-1(25),3,5,7,21,23-hexaene-11,14,17-trione] | 
19 | 32 (≈ 45.4 µM) | CN1C(=O)[C@H](CCCCN)NC(=O)[C@H](CCCN)NCc2ccccc2Sc2cccc(Cl)c2CNC(=O)[C@@H]1Cc1c[nH]c2ccccc12 [Example 22, (12S,15S,18S)-15-(4-Amino-butyl)-18-(3-amino-propyl)-7-chloro-12-(1H-indol-3-ylmethyl)-13-methyl-2-thia-10,13,16,19-tetraaza-tricyclo[19.4.0.0*3,8*]pentacosa-1(25),3,5,7,21,23-hexaene-11,14,17-trione] | 

From patent US10030047B2 (Hoffmann-La Roche Inc., priority 2015, dated 2018)
